Test results as given in patent US20240327364A1, “THERAPEUTIC TARGETING OF GPR68 TO INDUCE FERROPTOSIS” (University Of Maryland, Baltimore, priority 2023, published 2024).

Tests used:
FGFR2 = target: T1, FGFR2 (Homo sapiens, UniProt P21802); assay: KinomeScan; format: binding; conditions: read-out: % Control
T1 construct: purchased DiscoveRx (Fremont, CA)

GRK4 = target: T2, GRK4 (Homo sapiens, UniProt P32298); assay: KinomeScan; format: binding; conditions: read-out: % Control
T2 construct: purchased DiscoveRx (Fremont, CA)

ITK = target: T3, ITK (Homo sapiens, UniProt Q08881); assay: KinomeScan; format: binding; conditions: read-out: % Control
T3 construct: purchased DiscoveRx (Fremont, CA)

INK2 = target: T4, INK2 (Homo sapiens, UniProt P45984); assay: KinomeScan; format: binding; conditions: read-out: % Control
T4 construct: purchased DiscoveRx

KIT(D816V) = target: T5, KIT(D816V) (Homo sapiens, UniProt P10721, D816V); assay: KinomeScan; format: binding; conditions: read-out: % Control
T5 construct: purchased DiscoveRx

KIT(V559D, V654A) = target: T6, KIT(V559D, V654A) (Homo sapiens, UniProt P10721, V559D/V654A); assay: KinomeScan; format: binding; conditions: read-out: % Control
T6 construct: purchased DiscoveRx

MARK2 = target: T7, MARK2 (Homo sapiens, UniProt Q7KZI7); assay: KinomeScan; format: binding; conditions: read-out: % Control
T7 construct: purchased DiscoveRx (Fremont, CA)

MEK1 = target: T8, MEK1 (Homo sapiens, UniProt Q02750); assay: KinomeScan; format: binding; conditions: read-out: % Control
T8 construct: purchased DiscoveRx (Fremont, CA)

NEK7 = target: T9, NEK7 (Homo sapiens, UniProt Q8TDX7); assay: KinomeScan; format: binding; conditions: read-out: % Control
T9 construct: purchased DiscoveRx

RET(M918T) = target: T10, RET(M918T) (Homo sapiens, UniProt P07949, M918T); assay: KinomeScan; format: binding; conditions: read-out: % Control
T10 construct: purchased DiscoveRx (Fremont, CA)

TBK1 = target: T11, TBK1 (Homo sapiens, UniProt Q9UHD2); assay: KinomeScan; format: binding; conditions: read-out: % Control
T11 construct: purchased DiscoveRx (Fremont, CA)

CCK1 = target: T12, CCK1 (Homo sapiens, UniProt P32238); assay: GPCR Profiler; format: cell-based
T12 construct: host or cells: Chem-1 cells with promiscuous Gα15

CRF1 = target: T13, CRF1 (Homo sapiens, UniProt P34998); assay: GPCR Profiler; format: cell-based
T13 construct: host or cells: Chem-1 cells with Gα15

CysLT2 = target: T14, CysLT2 (Homo sapiens, UniProt Q9NS75); assay: GPCR Profiler; format: cell-based
T14 construct: host or cells: Chem-1 cells with Gα15

EP2 = target: T15, EP2 (Homo sapiens, UniProt P43116); assay: GPCR Profiler; format: cell-based
T15 construct: host or cells: Chem-1 cells expressing Gα15

NMU1 = target: T16, NMU1 (Homo sapiens, UniProt Q9HB89); assay: GPCR Profiler; format: cell-based
T16 construct: host or cells: Chem-1 cells expressing Gα15

OPRM1 = target: T17, OPRM1 (Homo sapiens, UniProt P35372); assay: GPCR Profiler; format: cell-based
T17 construct: host or cells: Chem-1 cells expressing Gα15

V2 = target: T18, V2 (Homo sapiens, UniProt P30518); assay: GPCR Profiler; format: cell-based
T18 construct: host or cells: Chem-1 cells expressing Galpha15

GL261Luc = assay: Cell Titer-Glo viability, Glioblastoma; format: cell-based
Experimental: (§1) OGM2 kills wide variety of cancer cell types. Cell sensitivity can be classified in to Very Sensitive (LC50<2 μM), Sensitive (LC50=2 to 10 μM), Mildly Sensitive (LC50>10 μM), and Refractory (no killing at 10 μM). The listed established cell were incubated with OGM2 at 2 μM or 10 μM for 72 hours under standard cell culture conditions, and relative cell number was assessed using Cell Titer-Glo Luminescent Cell Viability Assay (Promega™) following the manufacturer's instructions. Luminescence was determined using a Cytation 5 reader and Gen5 software package (BioTek™).
(§2) Cancer cells, which are very sensitive to killing by OGM2 (LCs <2 μM), with reported mRNA expression of GPR68 and the related proton sensing receptor GPR4. LC50's (concentrations causing 50% lethality) were determined using CellTiter-Glo (Promega™, G7570). Cells were plated in 12-well plates (CELLTREAT Scientific Products, 229112) in 1 ml of DMEM with high glucose, GlutaMAX, HEPES, or RPMI 1640 with Penicillin-Streptomycin (ThermoFisher™, 10564029, 11875119 and 15140122) and 10% FBS. Cells were incubated overnight at 37° C. in 5% CO2. Then 1 mL of fresh media was added with DMSO, OGM, or positive control (Erastin; APExBIO Technology, LLC, B1524) and cells incubated for 3 days. On the third day, all media was removed, cells were rinsed with 1×PBS, PBS was removed, and 200 μL of 1× Passive Lysis Buffer (Promega™, E1941) was added to each well. […]. Subsequently, 20 μL of lysate was added to 100 μL CellTiter-Glo™ reagent on a LUMITRAC 200 plate (Greiner™ bio-one, 82050-726). Plates were briefly spun down and read on a GloMax-Multi Detection System (Promega™).
(§3) The cells listed in the tables above were incubated with OGM2 at 2 μM or 10 μM for 72 hours under standard cell culture conditions, and relative cell number was assessed using Cell Titer-Glo Luminescent Cell Viability Assay (Promega™) following the manufacturer's instructions. Luminescence was determined using a Cytation 5 reader and Gen5 software package (BioTek™). RNA expression of GPR68 and GPR4 in the corresponding cancer cell lines are listed, according to the publicly available The Human Protein Atlas version 22.0 and Ensembl version 103.38 (see proteinatlas.org). The consensus normalized expression value (“nTPM”=normalize transcript per million) was calculated as the maximum nTPM value for each gene in the two data sources.

KR-158-luc = assay: Cell Titer-Glo viability, Glioblastoma; format: cell-based
Experimental: as §1, §2, §3

U-138 MG = assay: Cell Titer-Glo viability, Glioblastoma; format: cell-based; conditions: 72 hours
Experimental: as §1, §2, §3

U-87 MG = assay: Cell Titer-Glo viability, Glioblastoma; format: cell-based; conditions: 72 hours
Experimental: as §1, §2, §3

T17 sequence (P35372 whole entry, species assumed): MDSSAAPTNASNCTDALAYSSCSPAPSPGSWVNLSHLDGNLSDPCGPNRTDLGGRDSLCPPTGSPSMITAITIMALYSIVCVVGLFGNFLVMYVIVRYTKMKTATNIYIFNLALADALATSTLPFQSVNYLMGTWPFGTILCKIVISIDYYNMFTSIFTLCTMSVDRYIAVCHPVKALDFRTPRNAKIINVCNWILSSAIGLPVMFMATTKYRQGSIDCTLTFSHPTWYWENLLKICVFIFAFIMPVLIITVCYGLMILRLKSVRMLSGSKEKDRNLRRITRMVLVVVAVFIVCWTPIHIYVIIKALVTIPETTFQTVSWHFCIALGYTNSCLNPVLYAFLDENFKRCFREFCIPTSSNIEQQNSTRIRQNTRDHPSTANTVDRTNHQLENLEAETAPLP
T18 sequence (P30518 whole entry): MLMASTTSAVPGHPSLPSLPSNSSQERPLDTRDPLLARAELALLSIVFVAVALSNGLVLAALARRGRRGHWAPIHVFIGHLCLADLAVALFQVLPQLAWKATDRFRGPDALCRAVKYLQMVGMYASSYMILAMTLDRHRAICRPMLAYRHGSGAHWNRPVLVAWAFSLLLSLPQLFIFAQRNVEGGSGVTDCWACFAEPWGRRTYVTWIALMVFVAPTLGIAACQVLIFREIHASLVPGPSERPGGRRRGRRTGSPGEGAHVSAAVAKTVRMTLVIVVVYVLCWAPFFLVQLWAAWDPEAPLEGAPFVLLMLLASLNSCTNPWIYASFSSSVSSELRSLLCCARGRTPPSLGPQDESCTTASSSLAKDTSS
T13 sequence (P34998 24-415): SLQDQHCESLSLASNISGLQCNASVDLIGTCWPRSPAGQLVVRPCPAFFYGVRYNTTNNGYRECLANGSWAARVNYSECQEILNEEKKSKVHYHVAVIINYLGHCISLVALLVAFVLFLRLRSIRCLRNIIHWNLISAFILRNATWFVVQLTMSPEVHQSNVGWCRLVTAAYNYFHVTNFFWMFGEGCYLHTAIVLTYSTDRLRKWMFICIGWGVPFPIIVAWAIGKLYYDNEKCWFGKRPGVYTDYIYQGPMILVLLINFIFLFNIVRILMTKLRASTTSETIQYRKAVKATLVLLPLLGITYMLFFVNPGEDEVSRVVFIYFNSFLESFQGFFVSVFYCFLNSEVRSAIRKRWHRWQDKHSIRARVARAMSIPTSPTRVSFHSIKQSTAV
T14 sequence (Q9NS75 whole entry, species assumed): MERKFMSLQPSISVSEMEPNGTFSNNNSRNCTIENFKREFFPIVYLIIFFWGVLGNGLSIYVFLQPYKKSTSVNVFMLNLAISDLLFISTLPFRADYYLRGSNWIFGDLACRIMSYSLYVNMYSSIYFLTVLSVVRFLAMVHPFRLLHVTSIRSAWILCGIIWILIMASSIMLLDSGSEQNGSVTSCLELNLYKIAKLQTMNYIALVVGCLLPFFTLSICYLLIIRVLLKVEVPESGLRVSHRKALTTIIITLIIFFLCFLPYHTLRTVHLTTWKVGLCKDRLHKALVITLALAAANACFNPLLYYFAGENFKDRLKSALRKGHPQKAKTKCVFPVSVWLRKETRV
T15 sequence (P43116 whole entry): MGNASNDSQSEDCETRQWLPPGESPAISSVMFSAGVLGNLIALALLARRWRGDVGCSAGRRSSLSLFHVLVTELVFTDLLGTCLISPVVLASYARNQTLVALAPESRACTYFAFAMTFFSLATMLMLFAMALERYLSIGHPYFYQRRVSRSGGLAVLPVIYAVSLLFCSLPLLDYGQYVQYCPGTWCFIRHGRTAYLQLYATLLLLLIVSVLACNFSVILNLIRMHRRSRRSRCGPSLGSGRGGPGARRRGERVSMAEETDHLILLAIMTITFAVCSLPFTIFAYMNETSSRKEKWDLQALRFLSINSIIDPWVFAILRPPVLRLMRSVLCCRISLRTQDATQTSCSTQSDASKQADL
T16 sequence (Q9HB89 whole entry): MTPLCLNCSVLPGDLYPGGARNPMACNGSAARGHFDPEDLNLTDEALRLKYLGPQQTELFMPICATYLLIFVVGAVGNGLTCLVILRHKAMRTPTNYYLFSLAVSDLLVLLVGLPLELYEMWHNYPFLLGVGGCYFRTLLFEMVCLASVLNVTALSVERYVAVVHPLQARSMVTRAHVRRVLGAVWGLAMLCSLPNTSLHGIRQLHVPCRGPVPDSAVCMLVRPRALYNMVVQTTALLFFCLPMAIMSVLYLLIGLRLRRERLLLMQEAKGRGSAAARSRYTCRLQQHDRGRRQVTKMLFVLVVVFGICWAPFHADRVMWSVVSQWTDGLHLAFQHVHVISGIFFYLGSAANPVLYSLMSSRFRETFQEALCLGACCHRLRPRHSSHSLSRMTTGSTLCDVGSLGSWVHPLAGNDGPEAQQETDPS
T12 sequence (P32238 whole entry): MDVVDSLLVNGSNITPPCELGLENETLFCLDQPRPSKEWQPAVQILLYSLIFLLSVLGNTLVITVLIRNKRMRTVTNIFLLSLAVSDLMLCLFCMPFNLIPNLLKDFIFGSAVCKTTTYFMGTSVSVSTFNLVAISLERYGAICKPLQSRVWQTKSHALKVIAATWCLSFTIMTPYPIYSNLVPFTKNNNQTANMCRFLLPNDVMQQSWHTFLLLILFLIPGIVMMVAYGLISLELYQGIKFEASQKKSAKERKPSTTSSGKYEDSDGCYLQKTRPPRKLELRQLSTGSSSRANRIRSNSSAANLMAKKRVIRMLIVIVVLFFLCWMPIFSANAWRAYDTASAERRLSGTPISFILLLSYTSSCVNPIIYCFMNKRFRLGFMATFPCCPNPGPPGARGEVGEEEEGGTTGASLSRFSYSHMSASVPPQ
T3 sequence (Q08881 whole entry): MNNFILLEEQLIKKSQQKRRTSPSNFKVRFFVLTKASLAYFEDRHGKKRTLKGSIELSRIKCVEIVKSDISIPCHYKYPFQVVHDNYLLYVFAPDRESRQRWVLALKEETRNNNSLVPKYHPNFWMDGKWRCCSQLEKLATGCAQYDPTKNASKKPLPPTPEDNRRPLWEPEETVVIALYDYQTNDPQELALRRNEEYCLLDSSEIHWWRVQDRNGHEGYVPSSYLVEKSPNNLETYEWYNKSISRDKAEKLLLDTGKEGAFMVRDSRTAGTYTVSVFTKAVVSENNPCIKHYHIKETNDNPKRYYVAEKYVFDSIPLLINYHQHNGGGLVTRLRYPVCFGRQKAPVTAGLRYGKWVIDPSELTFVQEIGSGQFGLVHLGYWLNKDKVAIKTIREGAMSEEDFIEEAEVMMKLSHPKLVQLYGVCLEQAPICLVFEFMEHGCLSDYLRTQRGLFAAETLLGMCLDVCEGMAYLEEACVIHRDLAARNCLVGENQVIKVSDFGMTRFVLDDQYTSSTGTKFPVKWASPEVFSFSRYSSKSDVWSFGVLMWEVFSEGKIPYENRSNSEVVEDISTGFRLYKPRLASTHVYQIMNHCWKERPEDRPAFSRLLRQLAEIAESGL
T8 sequence (Q02750 whole entry): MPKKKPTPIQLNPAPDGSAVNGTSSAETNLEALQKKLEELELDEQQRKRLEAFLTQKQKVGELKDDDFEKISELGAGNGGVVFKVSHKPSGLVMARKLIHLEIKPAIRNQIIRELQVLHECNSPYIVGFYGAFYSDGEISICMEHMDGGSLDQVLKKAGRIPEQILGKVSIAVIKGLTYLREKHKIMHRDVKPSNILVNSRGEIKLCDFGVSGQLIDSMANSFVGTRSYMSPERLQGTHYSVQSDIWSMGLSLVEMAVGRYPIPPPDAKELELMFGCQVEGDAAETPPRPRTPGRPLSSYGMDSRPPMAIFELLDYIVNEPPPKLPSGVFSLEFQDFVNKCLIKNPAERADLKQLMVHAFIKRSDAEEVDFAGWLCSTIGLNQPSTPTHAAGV
T11 sequence (Q9UHD2 whole entry): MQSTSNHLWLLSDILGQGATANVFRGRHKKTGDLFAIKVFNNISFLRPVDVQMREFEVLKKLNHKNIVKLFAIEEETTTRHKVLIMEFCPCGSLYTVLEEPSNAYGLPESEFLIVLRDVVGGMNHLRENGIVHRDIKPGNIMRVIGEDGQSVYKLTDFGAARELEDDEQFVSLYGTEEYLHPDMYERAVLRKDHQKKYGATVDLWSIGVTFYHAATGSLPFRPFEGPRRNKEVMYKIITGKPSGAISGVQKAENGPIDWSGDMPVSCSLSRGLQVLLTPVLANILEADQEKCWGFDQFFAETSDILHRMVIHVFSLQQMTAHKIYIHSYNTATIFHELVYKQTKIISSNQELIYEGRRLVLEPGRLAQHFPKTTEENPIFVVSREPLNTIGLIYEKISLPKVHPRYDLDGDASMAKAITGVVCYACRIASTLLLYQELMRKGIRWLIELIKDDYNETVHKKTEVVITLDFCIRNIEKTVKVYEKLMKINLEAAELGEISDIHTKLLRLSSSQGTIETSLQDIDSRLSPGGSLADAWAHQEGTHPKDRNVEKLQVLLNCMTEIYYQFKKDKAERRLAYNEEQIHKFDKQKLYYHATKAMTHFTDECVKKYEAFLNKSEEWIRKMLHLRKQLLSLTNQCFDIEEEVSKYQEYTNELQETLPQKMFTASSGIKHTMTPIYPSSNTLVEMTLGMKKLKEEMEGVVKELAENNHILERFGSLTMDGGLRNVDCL
T9 sequence (Q8TDX7 whole entry): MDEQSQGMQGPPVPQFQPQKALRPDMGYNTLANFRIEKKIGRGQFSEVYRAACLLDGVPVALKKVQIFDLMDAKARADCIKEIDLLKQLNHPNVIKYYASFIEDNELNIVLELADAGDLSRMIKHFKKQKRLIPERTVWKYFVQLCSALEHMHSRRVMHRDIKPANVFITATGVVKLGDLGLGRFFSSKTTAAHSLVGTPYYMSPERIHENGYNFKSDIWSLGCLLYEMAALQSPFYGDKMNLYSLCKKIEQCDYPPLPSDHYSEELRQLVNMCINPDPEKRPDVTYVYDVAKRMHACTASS

`CCc1ccc2c(c1)C1(NN=C(c3cccc4ccccc34)S1)C(=O)N2` (stereo not drawn) [OGM1, 5-ethyl-5′-naphthalen-1-ylspiro[1H-indole-3,2′-3H-1,3,4-thiadiazole]-2-one] was tested, and the remaining binding at 10 µM (FGFR2) was 100%, the remaining binding at 10 µM (GRK4) was 96% and the remaining binding at 10 µM (ITK) was 100%. The remaining binding at 10 µM (INK2) was 83%, the remaining binding at 10 µM (KIT(D816V)) was 100% and the remaining binding at 10 µM (KIT(V559D, V654A)) was 100%. It also gave a remaining binding at 10 µM (MARK2) of 100%, a remaining binding at 10 µM (MEK1) of 84% and a remaining binding at 10 µM (NEK7) of 100%. For the same molecule, the remaining binding at 10 µM (RET(M918T)) was 92%, the remaining binding at 10 µM (TBK1) was 90% and the Antagonism (CCK1; 10 uM) was 1.9. The Agonism (CCK1; 12.5 uM) was 0.8, the Antagonism (CRF1; 10 uM) was 4.6 and the Agonism (CRF1; 12.5 uM) was −0.1. The Antagonism (CysLT2; 10 uM) was −7.1, the Agonism (CysLT2; 12.5 uM) was −0.3 and the Antagonism (EP2; 10 uM) was 7. It also gave an Agonism (EP2; 12.5 uM) of −0.2, an Antagonism (NMU1; 10 uM) of 6.2 and an Agonism (NMU1; 12.5 uM) of 1.8. It also gave an Antagonism (OPRM1; 10 uM) of −0.7, an Agonism (OPRM1; 12.5 uM) of −0.7 and an Antagonism (V2; 10 uM) of 2.9. The Agonism (V2; 12.5 uM) was 0.6.
For `CCc1ccc2c(c1)C1(NN=C(c3ccccc3)S1)C(=O)N2` (stereo not drawn) [OGM2], the Class (GL261Luc) was “Very Sensitive (Very Sensitive (LC50<2 μM))”, the “% Survival 2 μM OGM” value (GL261Luc; 72 hours) was 1.8% and the “% Survival 10 μM OGM” value (GL261Luc; 72 hours) was 0.1%. For the same molecule, the CC50 (GL261Luc; Mus musculus, GL261-Luc, 72 hours, read-out: LC50 (the source's name)) was < 2000 nM, the Class (KR-158-luc) was “Very Sensitive (Very Sensitive (LC50<2 μM))” and the “% Survival 2 μM OGM” value (KR-158-luc; 72 hours) was 11.4%. The “% Survival 10 μM OGM” value (KR-158-luc; 72 hours) was 4.7%, the CC50 (KR-158-luc; Mus musculus, 72 hours, read-out: LC50 (the source's name)) was < 2000 nM and the “% Survival 2 μM OGM” value (U-138 MG) was 40.3%. For the same molecule, the “% Survival 10 μM OGM” value (U-138 MG) was 35.0%, the CC50 (U-138 MG; Homo sapiens, U138-MG, read-out: LC50 (the source's name)) was < 2000 nM and the “% Survival 2 μM OGM” value (U-87 MG) was 21.3%. For the same molecule, the “% Survival 10 μM OGM” value (U-87 MG) was 10.1% and the CC50 (U-87 MG; Homo sapiens, U-87 MG, read-out: LC50 (the source's name)) was < 2000 nM.
